Here are results for 1 molecule from patent US20200308141A1, “SOLID STATE FORMS OF NERATINIB AND SALTS THEREOF” (PLIVA HRVATSKA D.O.O., priority 2016, published 2020).

Series [1] is described as follows: Texture analysis (low-pressure compression, TA-XTplus Texture analyser). It is filed as physicochemical. To be noted: for Compressed density index, CDI: 200 mg sample, cyclic compression up to 20 steps, CDI below 15 is considered good flowability. How it is done:
A simple and low sample consuming method for evaluation of the packing density of powders were obtained as compression profiles under low pressures using a die and a flat-faced punch fitted on a TA-XTplus Texture analyser (Stable Micro Systems Ltd., Godalming, UK). The small amount of 200 mg of sample was compressed in a steel mould (with the rate of displacement 0.03 mm/s). Also, a cyclic procedure (similar to tapping) was performed at maximal compressive displacement 0.5 mm, then retracting, relaxation for 15 s and then repeated compressive steps (altogether up to 20 steps).
Density at 0.2 MPa and CDI data of Neratinib maleate Form monohydrate and Neratinib maleate Form B6 (prepared according to example 12) are presented in Table 2.

Series [2] can be described thus: Solubility test according to European Pharmacopoeia 7.0, 5.11. It is filed as physicochemical. To be noted: for Solubility: Ph. Eur. descriptive term. How it is done: Solubility test was performed according to European Pharmacopoeia 7.0, page 637, 5.11.

As to `CCOc1cc2ncc(C#N)c(Nc3ccc(OCc4ccccn4)c(Cl)c3)c2cc1NC(=O)/C=C/CN(C)C` [Neratinib base B6, (E)-N-{4-[3-Chloro-4-(2-pyridinylmethoxy)anilino]-3-cyano-7-ethoxy-6-quinolinyl}-4-(dimethylamino) -2-butenamide], the “Density at 0.2 MPa” value in series [1] (200 mg sample compressed in steel mould, 0.03 mm/s, listed as crystalline form B6 of Neratinib base) is on record as “higher than that of the Neratinib maleate monohydrate”. The “Compressed density index, CDI” value in series [1] (listed as Neratinib base Form B6) is 10.89; in series [1] (listed as crystalline form B6 of Neratinib base), “below 15”. Besides, the “Solubility compared with Neratinib maleate monohydrate” value in series [2] (all tested conditions (pH 1.1, 4.5, 6.8), listed as Neratinib base form B6) is listed as “good correlation”. The Solubility result is reported as “sparingly” in series [2] (pH = 1.1), “slightly” in series [2] (pH = 4.5) and “very slightly” in series [2] (pH = 6.8).
